Assay results published in ChEMBL document CHEMBL3227976, “Synthesis of steroidal nitrosoureas with antitumor activity” (1979).

test system: 13762; assay: Antitumor activity against rat 13762 cells allografted in Fischer/344 rat assessed as tumor growth inhibition at 10 mg/kg/day, sc for 10 days followed by double the dose every 2 days from day 11 to day 19 relative to vehicle-treated control; format: functional; conditions: Rattus norvegicus, 13762, sc; route subcutaneous; read-out: TGI

Compound	inhibition in vivo at 10 mg/kg/day [%]
O=NN(CCCl)C(=O)NC1CCCCC1 [LOMUSTINE]	80
C[C@]12CC[C@@H]3c4ccc(O)cc4CC[C@H]3[C@@H]1CC[C@@]2(O)CNC(=O)N(CCCl)N=O	35
C[C@]12CC[C@@H]3c4ccc(O)cc4CC[C@H]3[C@@H]1CC[C@@H]2NC(=O)N(CCCl)N=O	50
CN(N=O)C(=O)NC[C@]1(O)CC[C@H]2[C@@H]3CCc4cc(O)ccc4[C@H]3CC[C@@]21C	10
CN(N=O)C(=O)N[C@H]1CC[C@H]2[C@@H]3CCc4cc(O)ccc4[C@H]3CC[C@]12C	15

test system: 13762; assay: Antitumor activity against rat 13762 cells allografted in Fischer/344 rat assessed as tumor growth inhibition at 2 mg/kg/day, sc for 10 days followed by double the dose every 2 days from day 11 to day 19 relative to vehicle-treated control; format: functional; conditions: Rattus norvegicus, 13762, sc; route subcutaneous; read-out: TGI

Compound	inhibition in vivo at 2 mg/kg/day [%]
C[C@]12CC[C@@H]3c4ccc(O)cc4CC[C@H]3[C@@H]1CC[C@@]2(O)CNC(=O)N(CCCl)N=O	0
C[C@]12CC[C@@H]3c4ccc(O)cc4CC[C@H]3[C@@H]1CC[C@@H]2NC(=O)N(CCCl)N=O	0
CN(N=O)C(=O)NC[C@]1(O)CC[C@H]2[C@@H]3CCc4cc(O)ccc4[C@H]3CC[C@@]21C	0
CN(N=O)C(=O)N[C@H]1CC[C@H]2[C@@H]3CCc4cc(O)ccc4[C@H]3CC[C@]12C	4

test system: 13762; assay: Antitumor activity against rat 13762 cells allografted in Fischer/344 rat assessed as tumor growth inhibition at 40 mg/kg/day, sc for 10 days followed by double the dose every 2 days from day 11 to day 19 relative to vehicle-treated control; format: functional; conditions: Rattus norvegicus, 13762, sc; route subcutaneous; read-out: TGI

Compound	inhibition in vivo at 40 mg/kg/day [%]
C[C@]12CC[C@@H]3c4ccc(O)cc4CC[C@H]3[C@@H]1CC[C@@]2(O)CNC(=O)N(CCCl)N=O	85
C[C@]12CC[C@@H]3c4ccc(O)cc4CC[C@H]3[C@@H]1CC[C@@H]2NC(=O)N(CCCl)N=O	100
CN(N=O)C(=O)NC[C@]1(O)CC[C@H]2[C@@H]3CCc4cc(O)ccc4[C@H]3CC[C@@]21C	23
CN(N=O)C(=O)N[C@H]1CC[C@H]2[C@@H]3CCc4cc(O)ccc4[C@H]3CC[C@]12C	15
